Data on 3 compounds can be found in US20240075004A1, “VERY-LONG-CHAIN POLYUNSATURATED FATTY ACIDS, ELOVANOID HYDROXYLATED DERIVATIVES, AND METHODS OF USE” (The Board of Supervisors of Louisiana State University and …, priority 2020, published 2024).

One data set concerns HNEpC. As to the kind of experiment: HNEpC challenged with HDM: SPiDER β-galactosidase staining. The data set is classed as cell-based, human. Particulars: 500 nM; HDM 30 μg/ml. The method, then: ELVN-34 protects HNEpC from the senescence-associated secretory phenotype (SASP response). Representative images of HNEpC stained with Hoechst 33342 and spider β-galactosidase—(Panel A) untreated (Control), (Panel B) challenged with HDM (30 μg/ml), and (Panel C) HNEpC treated with HDM and ELVN-34:6 Na (500 nM). (Panel D) Quantitative assessment of increased SASP response (measured by the spider β-galactosidase staining) upon HDM exposure (30 μg/ml). ELVN-34:6 Na (500 nM) treatment reduces the number of beta-gal positive HNEpC induced by HDM. […] (*p<0.05).
Cryopreserved human nasal epithelial cells HNEpC were purchased from PromoCell GmbH, Heidelberg, Germany. (Catalog #C-1260, Lot #436Z028).
The cells used for our experiments are primary nasal epithelial cells obtained from the nasal mucosa of a person.
Cells were received in passage (P1) and were sub-culture to passage (P3), which were used for all the experiments.
HNEpC were grown to 80% confluency in Promocell's Airway epithelial cell growth medium (Catalog #C-21060) which was supplemented with airway epithelial cell growth medium supplement pack (Catalog #C-39160) and Penicillin/Streptomycin.

Data set [1] has as its system pro-inflammatory transcriptome and pro-homeostatic pathways in RPE single-cells. As to the kind of experiment: UOS transcriptome in RPE single-cells. The data set is classed as cell-based. Conditions: 96 per sample. An excerpt:
Dots in box plots represent expression of the gene for a single RPEC (total of 96 per sample). P<0.001 (***), P<0.01 (**), One-way Anova, with Post-Hoc Tukey HSD test for multiple comparisons.

For another data set, the system named is human RPE cells. Description: Oxidative-stress and Erastin induced cell death in human RPE cells. The data set is classed as cell-based.
The test system of another data set is RPE and PRC. Description: Subretinal injection of OAβ in WT mice: fundus/OCT and ZO-1 whole flat mount of RPE. The data set is classed as in vivo, C57BL/6J WT mice. Particulars: OAβ-injected retina, 10 μM subretinal, 7 days; non-injected retina 105 μm. The method, then:
All animal experiments were performed according to ARVO Statement for the Use of Animals in Ophthalmic and Vision Research, and the protocol was approved by LSU Health New Orleans' Institutional Animal Care and Use Committee (IACUC). 6-month-old 5×FAD mice (stock number: 34848-JAX, The Jackson Laboratory, Bar Harbor, ME, USA), co-overexpress FAD mutant forms of human amyloid precursor protein (the Swedish mutation: K670N, M671L; the Florida mutation: I716V; and the London mutation: V7171) and presenilin 1 (PS1, encoded by Psen1: M146L, L286V) transgenes under transcriptional control of the neuron-specific mouse Thy1 promoter. 5×FAD mice were hemizygotes with respect to the transgenes and non-transgenic WT littermates. Genotyping was performed by PCR of tail DNA. All analyses were carried out blind with respect to the mice genotype. For the subretinal injection, 6-month-old C57BL/6J mice were anesthetized by an intraperitoneal injection of ketamine/xylazine, pupils dilated with 1.0% tropicamide (Akorn, IL, USA); and 0.5% Proparacaine Hydrochloride (Akorn) was applied for topical anesthesia. Eyes were punctured with a 30-gauge needle between the corneoscleral junction and the ora serrata into the vitreous cavity without disturbing the lens. Compounds were delivered to the subretinal region using a 33-gauge blunt needle attached to a 5 μl Hamilton syringe (Hamilton Company, Reno, NV, USA) under a dissecting microscope. Non-injected mice were used as negative control while the PBS injected mice were used for sham. The injection volume was 2 μl containing PBS, 10 μM of OAβ, 10 μM of OAβ+200 ng ELV-N-32, 200 ng ELV-N-32 alone, 10 μM of OAβ+200 ng ELV-N-34 or 200 ng ELV-N-34 alone (n=12/group). All groups received topical drops: PBS only or ELV-N-32 (200 nM) or ELV-N-34 (200 nM), twice a day for 3 or 7 days.
For the whole mount RPE staining, eyeballs were enucleated and pre-fixed in 4% PFA for 15 min. Then the eye cup containing RPE sheet were fixed in 4% PFA for 30 min, washed in PBS 3× following the blocking step for 1 h at room temperature. The immunostaining was performed by incubating primary antibody (ZO-1) for 48 h at 4° C. Then the eye cups were washed 3× with PBS and incubated with the secondary antibody for 12 h at 4° C. The primary human RPE cells as well as mouse eye cups were embedded in ProLong™ Gold Antifade Mounting medium (Thermo Fisher Scientific) between two glass coverslips. Pictures were taken with Olympus FV1200 microscope (Olympus, Japan). Images were analyzed by software ImageJ (rsb.info.nih.gov/ij/).
7 days post-injection, mice were anesthetized with ip ketamine/xylazine, pupil dilated by topical 1.0% tropicamide and placed in a custom-built holder for OCT imaging (body temperature maintained at 38° C. with a heat pad). Retinas were imaged along the horizontal meridian through the optic nerve head using a Heidelberg Spectralis HRA OCT system (Heidelberg Engineering, Heidelberg, Germany). Axial resolution is […]. The raw OCT B-scans cross-sectional images were exported with the scale in m and opened in ImageJ (http//imagej.nih.gov/ij). The PRC layer thickness was defined as the width from the tip of the outer nuclear layer, right after the outer plexiform layer, to the outer segments of PRC. Three measurements were made on the same scan and averaged. Mean and standard error of the mean (SEM) were calculated (n=4/group). Students' T-test was used to calculate statistical significance and a P-value less than 0.05 was considered significant.

`CC/C=C\C[C@H](O)\C=C/C=C/C=C/[C@H](O)C/C=C\C/C=C\CCCCCCCCCCCCCCC(=O)[O-].[Na+]` [ELVN-34:6 Na, sodium (16Z,19Z,22R,23E,25E,27Z,29S,31Z)-22,29-dihydroxytetratriaconta-16,19,23,25,27,31-hexaenoate]: in the data set with HNEpC, the “number of beta-gal positive HNEpC (SASP response, spider β-galactosidase staining)” value is on record as “reduces”.

For the compound `CC/C=C\C[C@H](O)\C=C/C=C/C=C/[C@H](O)C/C=C\C/C=C\CCC(=O)O` [NPD1, 10R,17S-dihydroxy-docosa-4Z,7Z,11E,13E,15Z,19Z-hexaenoic acid, reference compound], the “UOS up-regulation of pro-inflammatory transcriptome and down-regulation of pro-homeostatic pathways” value in data set [1] is reported as “suppress these changes”. Also, the “oxidative-stress and Erastin induced cell deaths” value with human RPE cells was “counteracted”.

For “OAβ: Aβ (1-42) oligomerized for 24 h at 4° C.; cytotoxic challenge injected subretinally or added to cells [reference compound]”, in the data set on RPE and PRC, the “PRC layer thickness (OCT)” value was 35 μm.
